Results published in patent US20070128217A1 (priority 2003, published 2007).

Assays:
[1] = system: antibodies in sera from SARS patients (sera 1a, 1b, 2, 6, 37, 62, London, SARS-yellow, SARS-green); assay type: binding, human; set-up: Binding of serum 6 to linear peptides of protein X1 of SARS-CoV Urbani / Binding of serum 37 to linear peptides of protein X1 of SARS-CoV Urbani / Binding of serum 6 to looped/cyclic peptide (PEPSCAN-ELISA) / Binding of serum 37 to looped/cyclic peptide (PEPSCAN-ELISA) / Binding of serum 37 to looped/cyclic peptides of protein X1 of SARS-CoV Urbani / Binding of serum 6 to linear peptides of protein X2 / Binding of serum 37 to linear peptides of protein X2 / Binding of serum 37 to looped/cyclic peptides of protein X2 of SARS-CoV Urbani / Binding of serum 6 to linear peptides of protein M of SARS-CoV Urbani / Binding of serum 37 to linear peptides of protein M of SARS-CoV Urbani / Binding of serum 6 to looped/cyclic peptides of protein M of SARS-CoV Urbani / Binding of serum 37 to looped/cyclic peptides of protein M of SARS-CoV Urbani / Binding of serum 6 to linear peptides of protein X3 of SARS-CoV Urbani / Binding of serum 37 to linear peptides of protein X3 of SARS-CoV Urbani / Binding of serum 37 to looped/cyclic peptides of protein X3 of SARS-CoV Urbani / Binding of serum 6 to linear peptides of protein X4 of SARS-CoV Urbani / Binding of serum 37 to linear peptides of protein X4 of SARS-CoV Urbani / Binding of serum 37 to looped/cyclic peptides of protein X4 of SARS-CoV Urbani / Binding of serum 6 to linear peptides of protein X5 of SARS-CoV Urbani / Binding of serum 37 to linear peptides of protein X5 of SARS-CoV Urbani / Binding of serum 37 to looped/cyclic peptides of protein X5 of SARS-CoV Urbani / Binding of serum 6 to linear peptides of protein N of SARS-CoV Urbani / Binding of serum 37 to linear peptides of protein N of SARS-CoV Urbani / Binding of serum 6 to linear peptide (PEPSCAN-ELISA) / Binding of serum 1a to looped/cyclic peptides of protein N of SARS-CoV Urbani / Binding of serum 1b to looped/cyclic peptides of protein N of SARS-CoV Urbani / Binding of serum 2 to looped/cyclic peptides of protein N of SARS-CoV Urbani / Binding of serum 6 to looped/cyclic peptides of protein N of SARS-CoV Urbani / Binding of serum 37 to looped/cyclic peptides of protein N of SARS-CoV Urbani / Binding of serum 62 to looped/cyclic peptides of protein N of SARS-CoV Urbani / Binding of serum London to looped/cyclic peptides of protein N of SARS-CoV Urbani / Binding of serum SARS-green to looped/cyclic peptides of protein N of SARS-CoV Urbani: unit not given here
[2] = system: control sera (pooled serum of ten healthy LUMC hospital workers; commercial negative donor pooled serum from the Dutch bloodbank); assay type: binding, human; set-up: Binding of Control serum LUMC to linear peptides / Binding of Control serum Blood-bank to linear peptides / Binding of Control serum LUMC to looped peptides / Binding of Control Serum Blood-Bank to Looped peptides / Binding of Control serum LUMC to linear peptides of the protein M of SARS-CoV Urbani / Binding of Control serum Blood-bank to linear peptides of the protein M of SARS-CoV Urbani / Binding of Control serum LUMC to looped peptides of the protein M of SARS-CoV Urbani / Binding of Control Serum Blood-Bank to Looped peptides of the protein M of SARS-CoV Urbani: unit not given here
[3] = system: rabbit serum obtained by immunizing a rabbit with the SARS-CoV strain Frankfurt 1; assay type: binding; set-up: Binding of a rabbit serum to linear peptides / Binding of a rabbit serum to looped peptides / Rabbit serum linear peptides / Rabbit serum looped peptides / Binding of a rabbit serum to linear peptides of protein N of SARS-CoV Urbani (Rabbit serum linear peptides) / Binding of a rabbit serum to looped/cyclic peptides of protein N of SARS-CoV Urbani (Rabbit serum looped peptides): unit not given here
[4] = system: recombinant human anti-SARS-CoV antibody 03-018; assay type: binding; set-up: Binding of antibody 03-018 to linear peptides of the N protein of SARS-CoV Urbani / Binding of antibody 03-018 to looped/cyclic peptides of the N protein of SARS-CoV Urbani: unit not given here

| Sequence | Binding of serum 1a to linear peptides of protein N of SARS-CoV Urbani [1] | Binding of serum 1a to looped/cyclic peptides of protein N of SARS-CoV Urbani [1] | Binding of serum 1b to linear peptides of protein N of SARS-CoV Urbani [1] | Binding of serum 1b to looped/cyclic peptides of protein N of SARS-CoV Urbani [1] | Binding of serum 2 to linear peptides of protein N of SARS-CoV Urbani [1] | Binding of serum 2 to looped/cyclic peptides of protein N of SARS-CoV Urbani [1] | Binding of serum 6 to looped/cyclic peptides of protein N of SARS-CoV Urbani [1] | Binding of serum 37 to looped/cyclic peptides of protein N of SARS-CoV Urbani [1] | Binding of serum 62 to looped/cyclic peptides of protein N of SARS-CoV Urbani [1] | Binding of serum London to looped/cyclic peptides of protein N of SARS-CoV Urbani [1] | Binding of serum SARS-green to looped/cyclic peptides of protein N of SARS-CoV Urbani [1] | Binding of serum SARS-yellow to looped/cyclic peptides of protein N of SARS-CoV Urbani [1] | Binding of Control Serum Blood-Bank to Looped peptides [2] | Binding of Control serum Blood-bank to linear peptides [2] | Binding of Control serum LUMC to linear peptides [2] | Binding of Control serum LUMC to looped peptides [2] | Binding of a rabbit serum to linear peptides of protein N of SARS-CoV Urbani (Rabbit serum linear peptides) [3] | Binding of a rabbit serum to looped/cyclic peptides of protein N of SARS-CoV Urbani (Rabbit serum looped peptides) [3] | Binding of antibody 03-018 to linear peptides of the N protein of SARS-CoV Urbani [4] | Binding of antibody 03-018 to looped/cyclic peptides of the N protein of SARS-CoV Urbani [4] | also measured |
| --- | --- | --- | --- | --- | --- | --- | --- | --- | --- | --- | --- | --- | --- | --- | --- | --- | --- | --- | --- | --- | --- |
| YYRRATRRVRGGDGK | 0.3 | 0.2 | 0.1 | 0.1 | 0.3 | 0.2 | 0.1 | 0.4 | 0.2 | 0.2 | 0.0 | 0.1 | 0.3 | 0.6 | 0.6 | 0.2 | 0.2 | 0.0 | 0.1 | 0.2 | Binding of serum 6 to linear peptides of protein N of SARS-CoV Urbani [1]: 0.3; Binding of serum 37 to linear peptides of protein N of SARS-CoV Urbani [1]: 0.7; Binding of serum 62 to linear peptides of protein N of SARS-CoV Urbani [1]: 0.6; Binding of serum London to linear peptides of protein N of SARS-CoV Urbani [1]: 0.5; Binding of serum SARS-green to linear peptides of protein N of SARS-CoV Urbani [1]: 0.3; Binding of serum SARS-yellow to linear peptides of protein N of SARS-CoV Urbani [1]: 0.5 |
| LPKGFYAEGSRGGSQ | – | 0.3 | – | 0.2 | – | 0.3 | 0.2 | 0.5 | 0.4 | 0.4 | 0.3 | 0.2 | 0.6 | 0.6 | 0.6 | 0.5 | 0.1 | 0.1 | 0.1 | 0.2 | Binding of serum 1a to linear peptide (PEPSCAN-ELISA) [1]: 0.2; Binding of serum 1b to linear peptide (PEPSCAN-ELISA) [1]: 0.1; Binding of serum 2 to linear peptide (PEPSCAN-ELISA) [1]: 0.2; Binding of serum 6 to linear peptide (PEPSCAN-ELISA) [1]: 0.1; Binding of serum 37 to linear peptide (PEPSCAN-ELISA) [1]: 0.6; Binding of serum 62 to linear peptide (PEPSCAN-ELISA) [1]: 0.6; Binding of serum London to linear peptide (PEPSCAN-ELISA) [1]: 0.4; Binding of serum SARS-green to linear peptide (PEPSCAN-ELISA) [1]: 0.2; Binding of serum SARS-yellow to linear peptide (PEPSCAN-ELISA) [1]: 0.5 |
| ASKKPRQKRTATKQY | – | 0.3 | – | 0.1 | – | 0.3 | 0.2 | 0.5 | 0.5 | 0.4 | 0.1 | 0.2 | 0.6 | 0.7 | 0.6 | 0.5 | 0.2 | 0.4 | 0.1 | 0.2 | Binding of serum 1a to linear peptide (PEPSCAN-ELISA) [1]: 0.2; Binding of serum 1b to linear peptide (PEPSCAN-ELISA) [1]: 0.1; Binding of serum 2 to linear peptide (PEPSCAN-ELISA) [1]: 0.3; Binding of serum 6 to linear peptide (PEPSCAN-ELISA) [1]: 0.2; Binding of serum 37 to linear peptide (PEPSCAN-ELISA) [1]: 0.7; Binding of serum 62 to linear peptide (PEPSCAN-ELISA) [1]: 0.6; Binding of serum London to linear peptide (PEPSCAN-ELISA) [1]: 0.5; Binding of serum SARS-green to linear peptide (PEPSCAN-ELISA) [1]: 0.3; Binding of serum SARS-yellow to linear peptide (PEPSCAN-ELISA) [1]: 0.5 |
| GVPINTNSGPDDQIG | 0.3 | 0.3 | 0.1 | 0.2 | 0.2 | 0.2 | 0.1 | 0.5 | 0.3 | 0.3 | 0.3 | 0.2 | 0.4 | 0.7 | 0.7 | 0.4 | 0.1 | 0.2 | 0.1 | 0.2 | Binding of serum 6 to linear peptides of protein N of SARS-CoV Urbani [1]: 0.2; Binding of serum 37 to linear peptides of protein N of SARS-CoV Urbani [1]: 0.8; Binding of serum 62 to linear peptides of protein N of SARS-CoV Urbani [1]: 0.6; Binding of serum London to linear peptides of protein N of SARS-CoV Urbani [1]: 0.5; Binding of serum SARS-green to linear peptides of protein N of SARS-CoV Urbani [1]: 0.5; Binding of serum SARS-yellow to linear peptides of protein N of SARS-CoV Urbani [1]: 0.5 |
| KKSAAEASKKPRQKR | – | 0.2 | – | 0.1 | – | 0.3 | 0.2 | 0.5 | 0.3 | 0.4 | 0.2 | 0.3 | 0.5 | 1.0 | 1.0 | 0.5 | 0.4 | 0.8 | 0.1 | 0.2 | Recognition of the peptide by sera of SARS-CoV infected individuals, and form (linear, looped/cyclic) in which it is recognized [1]: recognized in linear form |
